Legend:
[1] = molecular target: T1, human 5-HT1a receptors (Homo sapiens, UniProt P08908); assay: Competition radioligand binding, h5-HT1a; conditions: [3H]5-CT; membranes of CHO K1 cells; read-out: Ki 5-HT1A
T1 construct: expressed in transfected cells; host or cells: CHO K1 cells
T1 sequence (P08908 1-422): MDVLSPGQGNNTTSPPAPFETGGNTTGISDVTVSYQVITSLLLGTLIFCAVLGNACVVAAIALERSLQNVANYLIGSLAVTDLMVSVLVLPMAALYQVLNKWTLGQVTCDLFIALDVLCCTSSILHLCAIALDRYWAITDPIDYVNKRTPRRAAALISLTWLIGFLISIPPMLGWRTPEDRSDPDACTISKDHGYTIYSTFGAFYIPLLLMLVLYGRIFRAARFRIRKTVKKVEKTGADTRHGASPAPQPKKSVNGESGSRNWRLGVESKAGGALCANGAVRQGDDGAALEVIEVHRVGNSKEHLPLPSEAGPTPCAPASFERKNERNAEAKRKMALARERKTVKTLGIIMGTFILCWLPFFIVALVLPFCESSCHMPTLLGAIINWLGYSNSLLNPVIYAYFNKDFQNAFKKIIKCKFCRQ
Description: (§1) Cells and Membrane Preparation: HEK 293 cells stably expressing human 5-HT7B (h5-HT7b) receptors were grown in Dulbecco's Modified Eagle's Medium (DMEM; Gibco) without sodium pyruvate and containing 4.5 g/L glucose, L-glutamine/penicillin-streptomycin (Gemini), 10% fetal bovine serum and 250 mg/l of the antibiotic, G418 (Geneticin) as previously described (Jasper, J. R., Kosaka, A., To, Z. P., Chang, D. J. and Eglen, R. M. (1997) Cloning, expression and pharmacology of a truncated splice variant of the human 5-ht7 receptor (h5-ht7b). Br. J. Pharmacol. 122(1):126-132.). Cell pellets were homogenized in approximately 50 mL of homogenization buffer (buffer A) containing: 50 mM Tris (pH 7.4), 2 mM EGTA, 0.32 M sucrose, 10 μM PMSF, 1 μg/mL leupeptin, 5 μg/mL Pepstatin A, and 5 μg/mL aprotinin using an UltraTurax homogenizer (Tekmar Company, Cincinnati, Ohio) at 80% maximum setting three times for 10 sec. Cell pellets were centrifuged at 4° C. at 1,500×g for 10 min in a Beckman GS-6R centrifuge. Pellets were resuspended in buffer A, homogenized and centrifuged as described above. Pooled supernatants were transferred to centrifuge bottles and centrifuged at 4° C. at 20,000×g for 30 min in a Beckman J2-HS centrifuge. Cell pellets were resuspended in buffer A and were centrifuged at 4° C. at 20,000×g for 30 min. Cell pellets were resuspended in buffer A and stored at −70° C. in aliquots of 2.5 mg/mL total membrane protein. Total membrane protein was assessed utilizing a BCA kit (Pierce; Rockford, Ill.). Membranes containing human 5-HT1a or 5HT2a receptors expressed in CHO K1 cells were prepared as described above.
(§2) Radioligand Binding Assays: For 5-HT7 saturation binding experiments, HEK-293 cell membranes expressing h5-HT7 receptors (5-10 μg membrane protein/well) were incubated in duplicate with [^3H]5-CT (approximately 0.2 nM) in binding assay buffer containing: 50 mM HEPES (pH 7.4), 0.5 mM EDTA, 10 mM MgCl2, 10 μM pargyline to inhibit monoamine oxidase activity, and 0.1% sodium ascorbate, in a final volume of 200 μL in 96-well polypropylene plates for 2 hours at 37° C. Nonspecific binding was determined by incubating membranes with 1 μM 5-HT. All radioligand binding assays were stopped by rapid filtration onto 96-well GF/C filter plates (Packard) soaked in 0.1% polyethylenimine. Filters were washed three times with ice-cold phosphate-buffered saline (PBS) wash buffer containing 50 mM NaPO4 (pH 7.4), 0.9% NaCl, 2 mM MgCl2 and 0.02% NaN3. The filters were then counted using liquid scintillation in a Packard Topcount scintillation counter.
(§3) Data Analysis: Radioligand binding experiments were analyzed with Prism™ (Graphpad, San Diego, Calif.), a computer graphics and statistics program. IC50 values and Hill slopes for compounds were generated by nonlinear regression using Prism™. Values for Ki calculated from IC50 values by the Cheng and Prussoff equation (Cheng, Y. and Prusoff, W. H., (1973), “Relationship between the inhibition constant (Ki) and the concentration of inhibitor which causes 50 per cent inhibition (I50) of an enzymatic reaction.” Biochemical Pharmacol. 22:3099-3108).

[2] = molecular target: T2, human 5HT2a receptors (Homo sapiens, UniProt P28223); assay: Competition radioligand binding, 5-HT2A; conditions: [3H]Ketanserin; membranes of CHO K1 cells; read-out: Ki 5-HT2A
T2 construct: expressed in transfected cells; host or cells: CHO K1 cells
T2 sequence (P28223 whole entry): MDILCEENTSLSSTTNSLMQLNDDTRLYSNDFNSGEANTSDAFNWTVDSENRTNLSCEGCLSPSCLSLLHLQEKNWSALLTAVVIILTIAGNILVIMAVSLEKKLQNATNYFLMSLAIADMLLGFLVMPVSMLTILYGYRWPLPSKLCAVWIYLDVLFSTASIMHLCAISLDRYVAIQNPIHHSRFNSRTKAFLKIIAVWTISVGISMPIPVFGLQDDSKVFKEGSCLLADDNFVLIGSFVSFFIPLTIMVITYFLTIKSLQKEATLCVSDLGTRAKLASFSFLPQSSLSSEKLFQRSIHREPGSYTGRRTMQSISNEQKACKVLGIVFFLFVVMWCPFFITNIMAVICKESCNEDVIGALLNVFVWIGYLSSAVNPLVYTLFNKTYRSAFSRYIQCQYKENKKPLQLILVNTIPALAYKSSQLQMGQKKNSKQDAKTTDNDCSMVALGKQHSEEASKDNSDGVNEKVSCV
Description: as §1, §2, §3

[3] = molecular target: T3, human 5-HT6 (h5-HT6) receptors (Homo sapiens, UniProt P50406); assay: Competition radioligand binding, h5-HT6; conditions: [3H]LSD; membranes of HEK-293 cells; read-out: Ki 5-HT6
T3 construct: purchased Receptor Biology, Inc. (Beltsville, Md.); host or cells: HEK-293 cells
T3 sequence (P50406 whole entry): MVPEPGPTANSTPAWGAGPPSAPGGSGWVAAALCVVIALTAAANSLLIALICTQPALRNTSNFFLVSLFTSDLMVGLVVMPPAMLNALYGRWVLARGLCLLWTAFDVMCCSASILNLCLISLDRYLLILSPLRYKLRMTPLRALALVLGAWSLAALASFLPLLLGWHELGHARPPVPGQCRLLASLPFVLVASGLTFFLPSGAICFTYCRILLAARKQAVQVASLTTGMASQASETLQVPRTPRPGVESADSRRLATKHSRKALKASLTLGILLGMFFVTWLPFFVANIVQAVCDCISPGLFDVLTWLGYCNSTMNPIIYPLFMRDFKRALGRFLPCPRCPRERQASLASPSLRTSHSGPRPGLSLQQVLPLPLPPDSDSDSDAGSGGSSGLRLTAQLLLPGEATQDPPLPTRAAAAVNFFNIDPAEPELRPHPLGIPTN

[4] = molecular target: T4, human 5-HT7B (h5-HT7b) receptors (Homo sapiens, UniProt P34969); assay: Competition radioligand binding, h5-HT7b; conditions: [3H]5-CT; membranes of HEK 293 cells; read-out: Ki 5-HT7
T4 construct: expressed in transfected cells
T4 sequence (P34969 1-432 limits assumed): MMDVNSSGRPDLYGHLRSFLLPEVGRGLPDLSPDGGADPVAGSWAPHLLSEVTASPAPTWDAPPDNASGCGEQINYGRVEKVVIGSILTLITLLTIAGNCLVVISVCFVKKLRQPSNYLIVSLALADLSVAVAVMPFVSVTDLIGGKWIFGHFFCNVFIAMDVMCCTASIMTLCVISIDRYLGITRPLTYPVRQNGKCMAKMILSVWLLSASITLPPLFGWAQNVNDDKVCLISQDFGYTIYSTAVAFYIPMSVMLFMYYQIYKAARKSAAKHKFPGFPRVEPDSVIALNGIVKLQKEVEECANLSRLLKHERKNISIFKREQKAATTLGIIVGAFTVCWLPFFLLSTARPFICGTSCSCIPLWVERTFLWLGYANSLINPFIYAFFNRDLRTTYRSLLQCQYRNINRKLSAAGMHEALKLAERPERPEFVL
Method in brief: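 Membranes from HEK 293 cells stably expressing human 5-HT7b incubated with ~0.2 nM [3H]5-CT and varying compound 2 h at 37 °C in HEPES buffer pH 7.4 with pargyline. Nonspecific binding with 1 μM 5-HT; filtration, scintillation counting; IC50 by nonlinear regression converted to Ki via Cheng–Prusoff.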

[5] = molecular target: T5, human D2S dopamine (hD2S-DA) receptors (Homo sapiens, UniProt P14416); assay: Competition radioligand binding, hD2S dopamine; conditions: [3H]Spiperone; membranes of A9 L cells; read-out: Ki D2
T5 construct: purchased Receptor Biology, Inc. (Beltsville, Md.); host or cells: A9 L cells
T5 sequence (P14416 1-414 isoform P14416-2): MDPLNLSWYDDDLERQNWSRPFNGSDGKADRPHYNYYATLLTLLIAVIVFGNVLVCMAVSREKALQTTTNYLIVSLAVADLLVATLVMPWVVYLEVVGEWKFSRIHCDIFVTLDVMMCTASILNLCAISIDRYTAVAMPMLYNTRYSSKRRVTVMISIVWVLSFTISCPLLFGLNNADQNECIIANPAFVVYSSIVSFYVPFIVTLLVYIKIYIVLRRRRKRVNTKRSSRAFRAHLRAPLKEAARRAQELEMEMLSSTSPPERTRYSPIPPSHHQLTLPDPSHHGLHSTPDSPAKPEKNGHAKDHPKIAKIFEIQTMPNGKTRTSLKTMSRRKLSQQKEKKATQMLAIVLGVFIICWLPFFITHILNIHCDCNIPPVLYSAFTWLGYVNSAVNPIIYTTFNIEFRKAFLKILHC

Row | Ki [1] [nM] | Ki [2] [nM] | Ki [3] [nM] | Ki [4] [nM] | Ki [5] [nM] | Structure (SMILES)
1 | 49 | 0.6 | 500 | 9.8 | 410 | N=C(NCc1cccc2ccccc12)NC(=O)NC[C@@H]1CCCC[C@H]1O [Example 46, 1-({[{[({[(1S,2R)-2-Hydroxycyclohexyl]methyl}amino)carbonyl]amino}(imino)methyl]amino}methyl)naphthalene]
2 | 47 | 0.25 | 620 | 26 | 1070 | N=C(NCc1cccc2ccccc12)NC(=O)NCC1(O)CCCCC1 [Example 50, 1-({[[({[(1-Hydroxycyclohexyl)methyl]amino}carbonyl)amino](imino)methyl]amino}methyl)naphthalene]
3 | > 4000 | 18 | > 10000 | 15 | > 2500 | CCOC(=O)N1CCN(C(=O)NC(=N)NCc2cccc3ccccc23)CC1 [Example 51, Ethyl 4-[({imino[(1-naphthylmethyl)amino]methyl}amino)carbonyl]-1-piperazine carboxylate]
4 | 170 | 0.8 | 1870 | 62 | 290 | COc1cccc(CCNC(=O)NC(=N)NCc2cccc3ccccc23)c1OC [Example 53, 1-({[({[(2,3-Dimethoxyphenethyl)amino]carbonyl}amino)(imino)methyl]amino}methyl)naphthalene]
5 | 2450 | 9.6 | 2450 | 13 | > 2500 | CNC(=O)NC(=N)NCc1cccc2ccccc12 [Example 54, 1-{[(1-Imino{[(methylamino)carbonyl]amino}methyl)amino]methyl}naphthalene]
6 | 1720 | 1.5 | 2320 | 10 | > 2500 | C[C@@H](O)CNC(=O)NC(=N)NCc1cccc2ccccc12 [Example 55, 1-({[[({[(2R)-2-Hydroxypropyl]amino}carbonyl)amino](imino)methyl]amino}methyl)naphthalene]
7 | 700 | 17 | > 10000 | 94 | > 2500 | CN(C)C(=O)NC(=N)NCc1cccc2ccccc12 [Example 56, 1-({[{[(Dimethylamino)carbonyl]amino}(imino)methyl]amino}methyl)naphthalene]
8 | 420 | 8.1 | 1370 | 23 | 1570 | COc1cccc(CN2CCC(CNC(=O)NC(=N)NCc3cccc4ccccc34)CC2)c1 [Example 58, 4-({[({Imino[(1-naphthylmethyl)amino]methyl}amino)carbonyl]amino}methyl)-1-(3-methoxybenzyl)piperidine]
9 | 68 | 16 | 3470 | 51 | 1870 | N=C(NCc1cccc2ccccc12)NC(=O)NCC1CCN(Cc2ccc([N+](=O)[O-])cc2)CC1 [Example 60, 4-({[({Imino[(1-naphthylmethyl)amino]methyl}amino)carbonyl]amino}methyl)-1-(4-nitrobenzyl)piperidine]
10 | 340 | 1.8 | 3030 | 39 | 1780 | COc1ccc(C(C)=O)cc1CN1CCC(CNC(=O)NC(=N)NCc2cccc3ccccc23)CC1 [Example 63, 1-(5-Acetyl-2-methoxybenzyl)4({[({imino[(1-naphthylmethyl)amino]methyl}amino)carbonyl]amino}methyl)piperidine]
11 | 690 | 9.5 | 4180 | 29 | 2490 | Cc1ccccc1CN1CCC(CNC(=O)NC(=N)NCc2cccc3ccccc23)CC1 [Example 65, 4-({[({Imino[(1-naphthylmethyl)amino]methyl}amino)carbonyl]amino}methyl)-1-(2-methylbenzyl)piperidine]
12 | 430 | 4.2 | 3700 | 31 | 1580 | N=C(NCc1cccc2ccccc12)NC(=O)NCC1CCN(Cc2ccc3c(c2)OCO3)CC1 [Example 66, 1-(1,3-Benzodioxol-5-ylmethyl)-4-({[({imino[(1-naphthylmethyl)amino]methyl}amino)carbonyl]amino}methyl)piperidine]
13 | 500 | 6.4 | 2860 | 32 | > 2500 | N=C(NCc1cccc2ccccc12)NC(=O)NCC1CCN(Cc2ccc(F)cc2F)CC1 [Example 67]
14 | 1680 | 10 | 910 | 18 | 1540 | COc1ccc(CN2CCC(CNC(=O)NC(=N)NCc3cccc4ccccc34)CC2)cc1C [Example 68, 4-({[({Imino[(1-naphthylmethyl)amino]methyl}amino)carbonyl]amino}methyl)-1-(4-methoxy-3-methylbenzyl)piperidine]
15 | 110 | 0.55 | 2430 | 16 | 2450 | CC(=O)Nc1ccc(CN2CCC(CNC(=O)NC(=N)NCc3cccc4ccccc34)CC2)cc1 [Example 70, N-(4-{[4-({[({Imino[(1-naphthylmethyl)amino]methyl}amino)carbonyl]amino}methyl)-1-piperidinyl]methyl}phenyl)acetamide]
16 | 600 | 1.3 | 1370 | 19 | 1470 | COc1ccc(CN2CCC(CNC(=O)NC(=N)NCc3cccc4ccccc34)CC2)cc1 [Example 71, 4-({[({Imino[(1-naphthylmethyl)amino]methyl}amino)carbonyl]amino}methyl)-1-(4-methoxybenzyl)piperidine]
17 | 420 | 5.3 | 880 | 15 | 880 | Cc1cccc(CN2CCC(CNC(=O)NC(=N)NCc3cccc4ccccc34)CC2)c1 [Example 72, 4-({[({Imino[(1-naphthylmethyl)amino]methyl}amino)carbonyl]amino}methyl)-1-(3-methylbenzyl)piperidine]

Reference: US20040044037A1, “Amidino-urea serotonin receptor ligands and compositions, their pharmaceutical uses, and methods for their snythesis” (priority 2003, published 2004)
